Read-outs that look alike come from different tables or passages of the source.
Tests used:
severe TBI [1] = test: severe TBI model (brain tissue loss, apoptosis, balance beam foot faults, edema); format: in vivo, mice; conditions: as low as 20 μg/kg in two doses early after injury; pre-clinical modeling
Excerpt: In a series of publications, the Bansal laboratory has shown that exogenously dosed ghrelin confers significant neuroprotective benefits following severe TBI. […] Severe TBI causes significant tissue necrosis and neuron loss secondary to edema and apoptosis. […] Severe TBI induces apoptosis within the neocortex (TUNEL staining green). […] Severe TBI caused significant neurocognitive defects (as measured by foot faults on a balance beam assay) on post-TBI Day 1, 3 and 7 compared to sham.

rodent brain injury = conditions: cited from earlier work
[2] = human, in vivo; cited from earlier work
mild TBI [3] = test: mild TBI model (controlled cortical impactor), whole brain oxidative burst assay by flow cytometry; format: in vivo, mouse
Procedure: In a mild TBI model, ghrelin therapy provided significant neuroprotective effects. Using a controlled cortical impactor, with standardized settings (5.0 m/s, a 3 mm diameter impounder tip, a depth of 1.0 mm, and a dwell time of 0.2 milliseconds), a mouse mild brain injury was elicited in three groups (n=5 in each group), sham, mTBI only, mTBI with 2 doses of ghrelin (50 μg/kg) 10 minutes and 1 hour after injury. Animals were sacrificed after 24 hours and whole brain reactive oxygen species was assessed by an oxidative burst assay as measured by flow cytometry. […] Ghrelin therapy decreased mTBI oxidative burst to sham levels 3,300 MFI (SEM 1,000); p<0.05 mTBI compared to drug treated.

mild TBI [4] = test: mild TBI model, myeloperoxidase (MPO) and Gr-1 (neutrophil) staining in the hippocampus; format: in vivo, mouse; conditions: same three animal groups
Procedure: In a mild TBI model, ghrelin therapy provided significant neuroprotective effects. Using a controlled cortical impactor, with standardized settings (5.0 m/s, a 3 mm diameter impounder tip, a depth of 1.0 mm, and a dwell time of 0.2 milliseconds), a mouse mild brain injury was elicited in three groups (n=5 in each group), sham, mTBI only, mTBI with 2 doses of ghrelin (50 μg/kg) 10 minutes and 1 hour after injury. Ghrelin reduces oxidative burst (a measure of ROS) following mild TBI in animal models. Oxidative burst was determined 24 hours following mild TBI in three groups via flow cytometry. […] In separate experiments, using the same three animal groups, myeloperoxidase (MPO) and Gr-1 (neutrophil) staining were conducted in the hippocampus. […] Myeloperoxidase (MPO) is a potent enzyme in neutrophils and […] that forms hypochlorous acid (ROS). […] Ghrelin therapy reduced MPO staining. These observations built upon previous work showing ghrelin's protective effect following severe TBI models, stroke and other neurodegenerative diseases.

severe TBI [5] = conditions: cited from earlier work; for brain tissue loss / loss of brain volume: 7 days following injury, 10 minutes and 1 hour after TBI; for brain tissue loss / loss of brain volume / apoptosis in the neocortex (TUNEL staining): ghrelin 20 μg/kg; for apoptosis in the neocortex (TUNEL staining): two doses
GHS-R = GHS-R (Homo sapiens, UniProt Q92847); test: GHS-R antagonist activity in a cell based assay; conditions: GHS-R modulating compounds
Chain of GHS-R (Q92847 whole entry, species assumed): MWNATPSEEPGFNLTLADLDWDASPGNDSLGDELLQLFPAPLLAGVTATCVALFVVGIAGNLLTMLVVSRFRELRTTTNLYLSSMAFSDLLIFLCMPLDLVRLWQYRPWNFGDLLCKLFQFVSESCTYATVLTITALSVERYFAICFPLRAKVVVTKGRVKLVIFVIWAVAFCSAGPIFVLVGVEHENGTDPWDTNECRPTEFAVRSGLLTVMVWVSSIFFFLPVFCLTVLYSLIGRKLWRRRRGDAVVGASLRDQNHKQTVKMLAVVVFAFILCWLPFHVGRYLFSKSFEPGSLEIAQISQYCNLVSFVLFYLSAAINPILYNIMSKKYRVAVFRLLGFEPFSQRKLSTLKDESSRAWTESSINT

Ghrelin (GSSFLSPEHQRVQQRKESKKPPAKLQPR; Ghrelin-28; UniProt Q9UBU3 24-51, looked up)
post-severe TBI edema (severe TBI [1]): significant decrease | ROS accumulation (rodent brain injury): prevents | neuro-cognitive function (rodent brain injury): improves | neuron tissue loss (rodent brain injury): decreases | neuronal apoptosis (rodent brain injury): prevents | serious adverse events [2]: no serious adverse events | side effects observed [2]: only transient gastrointestinal symptoms | efficacy in mTBI (mild TBI [3]; 50 μg/kg, two doses administered within 24 hours of injury, initial pre-clinical experiments): efficacy | oxidative burst (a measure of ROS) following mild TBI (mild TBI [3]; 24 hours following mild TBI, flow cytometry): significantly reduced | oxidative burst (whole brain reactive oxygen species) (mild TBI [3]; mouse mTBI, 2 doses of ghrelin (50 μg/kg) 10 minutes and 1 hour after injury, sacrificed after 24 hours, flow cytometry, n=5): 3,300 MFI | MPO staining in the hippocampus (mild TBI [4]): significant reduction | neutrophil infiltration (Gr-1 staining) in the hippocampus (mild TBI [4]): significant reduction | brain tissue loss / loss of brain volume (severe TBI [5]; listed as ghrelin): significantly less | brain tissue loss / loss of brain volume (severe TBI [5]): significantly decreased | invasion of inflammatory cells (severe TBI [5]): decreased | apoptosis in the neocortex (TUNEL staining) (severe TBI [5]; listed as ghrelin): significantly less | apoptosis in the neocortex (TUNEL staining) (severe TBI [5]): significantly reduced | neurocognitive function (foot faults on a balance beam assay) (severe TBI [5]; post-TBI Day 1, 3 and 7, ghrelin dosed only at Day 0, listed as ghrelin): improved | neurocognitive function (foot faults on a balance beam assay) (severe TBI [5]; post-TBI Day 1, 3 and 7, ghrelin dosed only at Day 0): prevented neurocognitive decline to levels of sham

CCN(CC)CCCS(=O)(=O)N[C@H](CCc1ccccc1)c1nc(-c2cncc(Br)c2)no1 [Compound 103]
Ki (GHS-R): 0.1 to 0.5 µM
